Experiments:
[1] = Tolerability in SCID mice with human Hep3b xenograft (body weight, clinical signs); format: in vivo, mouse; conditions: 25 mg/kg i.p. BID x 5, SCID mice
Procedure: Compounds were prepared in PBS, n=9 mice per group. Body weights were monitored daily in three SCID mouse populations:
wherein the 5 day BID commenced 21 days after subcutaneous implantation with a human Hep3b xenograft.

[2] = test system: advanced, cytarabine-treatment failure, leukemia; conditions: cited from earlier work
MV4-11 cells = test: Leukemia cell line CC50 assay (Cell Counting Kit-8, 5 days), MV4-11; format: cell-based; conditions: Homo sapiens, MV4-11, 120 h, AML, MV411 cell line
Procedure: MV4-11 cells (human B-myelomonocytic leukemia) from ATCC Cat no. CRL-9591 were grown in complete cell medium: IMDM (w. GLUTAMAX-1) Cat no. 31980022 (Fisher Scientific), 10% Fetal Bovine serum (FBS) HyClone Cat. no. SV30160.03, lot no RAB35924 (GE Healthcare Life Sciences), Penicillin 50 u/ml/Streptomycin 0.05 mg/ml PAA Cat. no. P11-010 from Fisher Scientific.
(§1) Leukemia cells were grown in a cell culture flask 75 cm2 with approximately 100 ml complete cell medium. The cells were counted using a Scepter-hand held automated cell counter, using 60 μm sensors (Millipore) and suspended in complete cell medium to 2×10^5cells. 100 μl of the cell suspension were seeded to all wells (2×10^4 cells/well).
(§2) The compounds were tested in twelve concentrations, […], 50 ? BM−5×10^−10 μM. 100 μl from a compound dilution plate were transferred to the cell assay plate=200 μl/well total volume and incubated for 5 days, at 37° C., 5% CO2 incubator.
(§3) After 5 days, 10 μl of KIT-8 was added and the culture was incubated for 3-4 hours, at 37° C., 5% CO2 incubator.
(§4) Plate were read in the spectrophotometer at wavelength 450 nm with a reference filter of 620 nm.
(§5) CC50 values are calculated by plotting the degree of inhibition (compared to the vehicle ctrl) against the logarithm of the compound concentration. […]

THP-1 cells = test: Leukemia cell line CC50 assay (Cell Counting Kit-8, 5 days), THP-1; format: cell-based; conditions: Homo sapiens, THP-1, 120 h, AML, THP1 cell line
Procedure: (§6) THP-1 cells (human acute monocytic leukemia) from ATCC Cat. no TIB-202 were grown in complete cell medium: RPMI-1640 medium Gibco Cat. no.11835-063 (Fisher Scientific), 10% Fetal Bovine serum (FBS), HyClone Cat. no. SV30160.03, lot no RAB35924 (GE Healthcare Life Sciences), Penicillin 50 u/ml/Streptomycin 0.05 mg/ml PAA Cat. no. P11-010 from Fisher Scientific.
as §1, §2, §3, §4, §5

HL60 cells = test: Leukemia cell line CC50 assay (Cell Counting Kit-8, 5 days), HL60; format: cell-based; conditions: Homo sapiens, HL-60, 120 h, AML
Procedure: HL60 cells (human acute promyelocytic leukemia) from ATCC Cat. no CCL-240 were grown in complete cell medium: IMDM Cat. no 330-2005 (ATCC), 20% Fetal Bovine serum (FBS) HyClone Cat. no. SV30160.03, lot no RAB35924 (GE Healthcare Life Sciences), Penicillin 50u/ml/Streptomycin 0.05 mg/ml PAA Cat. no. P11-010 from Fisher Scientific
as §1, §2, §3, §4
CC50 values are calculated by plotting the degree of inhibition (compared to the vehicle ctrl) against the logarithm of the compound concentration. Result values in the dilution series are fitted to a 4-parameter sigmoidal dose-response curve described by the expression: […]

U-937 cells = test: Leukemia cell line CC50 assay (Cell Counting Kit-8, 5 days), U-937; format: cell-based; conditions: Homo sapiens, U-937, 120 h, AML, U937 cell line
Procedure: as §6, with “U-937” for “THP-1”, “histiocytic lymphoma)” for “acute monocytic leukemia)”, “CRL-1593.2” for “TIB-202”, “50u/ml/Streptomycin” for “50 u/ml/Streptomycin”
as §1, §2, §3, §4, §5

K-562 cells = test: Leukemia cell line CC50 assay (Cell Counting Kit-8, 5 days), K-562; format: cell-based; conditions: Homo sapiens, 120 h, CML, K562 cell line
Procedure: K-562 cells (human chronic myelogenous leukemia) from ATCC Cat. no CCL-243 were grown in complete cell medium: IMDM (w. L-glutamine, 25 mM Hepes, w/o Phenol red) Cat no. 21056-023 (Fisher Scientific), 10% Fetal Bovine serum (FBS) HyClone Cat. no. SV30160.03, lot no RAB35924 (GE Healthcare Life Sciences), Penicillin 50u/ml/Streptomycin 0.05 mg/ml Cat. no. SV30010 HyClone (Fisher Scientific)
as §1, §2, §3, §4, §5

MOLT-4 cells = test: Leukemia cell line CC50 assay (Cell Counting Kit-8, 5 days), MOLT-4; format: cell-based; conditions: Homo sapiens, 120 h, ALL (T cell), MOLT-4 cell line
Procedure: as §6, with “MOLT-4” for “THP-1”, “(human T-cell,” for “(human”, “lymphoblastic” for “monocytic”, “CRL-1582” for “TIB-202”, “(FBS)” for “(FBS),”, “Scientific” for “Scientific.”
as §1, §2, §3, §4, §5

Raji cells = test: Leukemia cell line CC50 assay (Cell Counting Kit-8, 5 days), Raji; format: cell-based; conditions: Homo sapiens, 120 h, BL (B cell)
Procedure: as §6, with “Raji” for “THP-1”, “(B-lymphocyte from Burkitt's lymphoma)” for “(human acute monocytic leukemia)”, “CCL-86” for “TIB-202”
as §1, §2, §3, §4, §5

CEM cells = test: Leukemia cell line CC50 assay (Cell Counting Kit-8, 5 days), CEM; format: cell-based; conditions: Homo sapiens, CCRF-CEM, 120 h, ALL (T cell)
Procedure: CEM cells (T-lymphoblast from acute lymphoblastic leukemia) acquired from Swedish Institute for Infectious Disease Control (SMI) were grown in complete cell medium: RPMI-1640 medium (without L-glutamine) Cat. no. R7509 (Sigma Aldrich), 10% Fetal Bovine serum (FBS) HyClone Cat. no. SV30160.03, lot no RAB35924 (GE Healthcare Life Sciences), Penicillin 50u/ml/Streptomycin 0.05 mg/ml PAA Cat. no. P11-010 from Fisher Scientific, 2 mM Ultra glutamine 1 Cat. no BE17-605E/U1 (Lonza). • Cell culture flask 75 cm2, Cat. no. 83.1813 from Sarstedt AB. • Compound dilution plate, 96-well, V-bottom PP plate, Nunc Cat. no.249944 from Thermo Scientific. • Cell assay plate, 96-well, Cat. no. 128009296 from Fisher Scientific • Cell Counting Kit-8 CK04 from Dojindo. • Test compounds were made up to 10 mM stock solution in DMSO
as §1, with “cells/well). […]” for “cells/well).”
as §4, §5

leukemia cell lines = test: Average CC50 over the leukemia cell lines of Table 1; format: cell-based; conditions: average over the leukemia cell lines of Table 1
Procedure: as §1
CC50 values are calculated by plotting the degree of inhibition (compared to the vehicle ctrl) against the logarithm of the compound concentration. Result values in the dilution series are fitted to a 4-parameter sigmoidal dose-response curve described by the expression:
[formula] where: • A=Minimum • B=Slope. • C=Inflection point. The inflection point is defined as the point on the curve where the curvature changes direction or signs. • D=Maximum • F=fraction inhibition • The CC50 value is the x-value giving F=0.5, as tabulated in Table 1 below: […]

[3] = Blood stability, murine whole blood; format: in vitro ADME
Procedure: Stability of compounds in blood was assessed following incubation in murine or human whole blood for up to 120 minutes. Remaining compound was quantified by LC-MS/MS and resulting data were used to calculate intrinsic clearance (CLint) values: […]

| Structure (SMILES) | tolerability observations (bodyweight, clinical signs) [1] | patients with transient decrease in peripheral blood and marrow blasts [2] | CC50 (MV4-11 cells) | CC50 (THP-1 cells) | CC50 (HL60 cells) | CC50 (U-937 cells) | CC50 (K-562 cells) | CC50 (MOLT-4 cells) | CC50 (Raji cells) | CC50 (CEM cells) | CC50 (leukemia cell lines) | stability in mouse blood [3] |
| --- | --- | --- | --- | --- | --- | --- | --- | --- | --- | --- | --- | --- |
| Nc1ccn([C@@H]2CO[C@H](CO)O2)c(=O)n1 [troxacitabine] | persistent bodyweight loss and clinical signs including piloerection, hunched posture and subdued behavior | Four | – | – | – | – | – | – | – | – | – | – |
| CC[C@@H](C)OC(=O)[C@H](C)NP(=O)(OC[C@H]1OC[C@@H](n2cc(F)c(N)nc2=O)O1)Oc1ccccc1 (single isomer, unassigned) [Prior art Ex 32 dia 2, reference compound] | – | – | 8.1 nM | 200 nM | 890 nM | 240 nM | 440 nM | 3.8 nM | 1000 nM | 52 nM | 350 nM | – |
| Nc1nc(=O)n([C@@H]2CO[C@H](CO)O2)cc1F [5-fluorotroxacitabine, 4-amino-5-fluoro-1-((25,4S)-2-(hydroxymethyl)-1,3-dioxolan-4-yl)pyrimidin-2(1H)-one, reference compound] | – | – | – | – | – | – | – | – | – | – | – | stable in mouse blood |
| CCC[C@H](C)OC(=O)[C@H](C)NP(=O)(OC[C@H]1OC[C@@H](n2cc(F)c(N)nc2=O)O1)Oc1cccc(C2CC2)c1 (single isomer, unassigned) [Prior art Ex 29 dia-2, reference compound] | – | – | 7.8 nM | 250 nM | – | 240 nM | 720 nM | 2.9 nM | 850 nM | 98 nM | 310 nM | – |

Source: patent publication US12479870B2, “Base-modified cytidine nucleotides for leukemia therapy” (MEDIVIR AB, priority 2018, dated 2025)
